Test results as given in PubChem BioAssay AID330 (DTP/NCI, 2004).
Inconclusive results and toxic doses are left out.

Tested on: P388 leukemia ip, CD2F1 mice, survival T/C
Test: NCI In Vivo Anticancer Drug Screen. Data for tumor model P388 Leukemia (intraperitoneal) in CD2F1 (CDF1) mice
Conditions: endpoint: median survival time, higher = longer survival
Method in brief: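 Mice carrying the transplanted tumor received test compound or vehicle. Survival was recorded in each group, and the value is the treated-group measurement divided by that of the vehicle-treated control group.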

[1] = dose: 50.0 mg/kg/injection, schedule: Q01DX005 (ip), vehicle: Klucel (hydroxypropylcellulose) (HPC)
[2] = dose: 100.0 mg/kg/injection, schedule: Q01DX005 (ip), vehicle: Klucel (hydroxypropylcellulose) (HPC)
[3] = dose: 200.0 mg/kg/injection, schedule: Q01DX005 (ip), vehicle: Klucel (hydroxypropylcellulose) (HPC)
[4] = dose: 50.0 mg/kg/injection, schedule: Q01DX009 (ip), vehicle: saline with Tween-80
[5] = dose: 100.0 mg/kg/injection, schedule: Q01DX009 (ip), vehicle: saline with Tween-80
[6] = dose: 200.0 mg/kg/injection, schedule: Q01DX009 (ip), vehicle: saline with Tween-80
[7] = dose: 50.0 mg/kg/injection, schedule: Q01DX009 (ip), vehicle: Klucel (hydroxypropylcellulose) (HPC)
[8] = dose: 100.0 mg/kg/injection, schedule: Q01DX009 (ip), vehicle: Klucel (hydroxypropylcellulose) (HPC)
[9] = dose: 200.0 mg/kg/injection, schedule: Q01DX009 (ip), vehicle: Klucel (hydroxypropylcellulose) (HPC)

`COC(=N)C1=CC(C)(C)N(O)C1(C)C` was tested, and the T/C (dose: 100.0 mg/kg/injection, schedule: Q01DX001 (ip), vehicle: saline) was 96 % of control, the T/C (dose: 200.0 mg/kg/injection, schedule: Q01DX001 (ip), vehicle: saline) was 102 % of control and the T/C (dose: 400.0 mg/kg/injection, schedule: Q01DX001 (ip), vehicle: saline) was 98 % of control.
In the case of `COc1ccc2[nH]c3c(c(=O)n(C)c(=O)n3C)c2c1`, the T/C [1] was 92 % of control, the T/C [2] was 93 % of control and the T/C [3] was 92 % of control.
For `C=C1C(=O)OC2/C=C(\C)CC(OC(C)=O)/C=C(/CO)CC(OC(=O)/C(C)=C/C)C12` (stereo unspecified), the T/C (dose: 3.75 mg/kg/injection, schedule: Q01DX009 (ip), vehicle: saline + alcohol) was 90 % of control, the T/C (dose: 7.5 mg/kg/injection, schedule: Q01DX009 (ip), vehicle: saline + alcohol) was 98 % of control and the T/C (dose: 15.0 mg/kg/injection, schedule: Q01DX009 (ip), vehicle: saline + alcohol) was 93 % of control. The T/C (dose: 30.0 mg/kg/injection, schedule: Q01DX009 (ip), vehicle: saline + alcohol) was 86 % of control.
For `COc1ccc(CC2CCCNC2C(=O)O)cc1` (stereo unspecified), the T/C [4] was 114 % of control, the T/C [5] was 101 % of control and the T/C [6] was 99 % of control.
In the case of `Nc1ncnc2c1ncn2C1(CO)OCC(O)C(O)C1O` (stereo unspecified), the T/C [1] was 101 % of control, the T/C [2] was 100 % of control and the T/C [3] was 101 % of control.
In the case of `O=C1N(Br)C(=O)C(c2ccc(Cl)cc2)(c2ccc(Cl)cc2)N1Br`, the T/C (dose: 11.0 mg/kg/injection, schedule: Q01DX009 (ip), vehicle: saline with Tween-80) was 122 % of control and the T/C (dose: 150.0 mg/kg/injection, schedule: Q01DX009 (ip), vehicle: saline with Tween-80) was 154 % of control.
`O=C(O)C1=C(/C=C(/c2ccccc2)c2ccc(Cl)cc2)OCCC1` was tested, and the T/C [4] was 90 % of control, the T/C [5] was 94 % of control and the T/C [6] was 105 % of control.
With `CCN(CC)CCOc1ccc(Cl)c(C)c1` the T/C (dose: 50.0 mg/kg/injection, schedule: Q01DX005 (ip), vehicle: saline with Tween-80) was 101 % of control and the T/C (dose: 100.0 mg/kg/injection, schedule: Q01DX005 (ip), vehicle: saline with Tween-80) was 103 % of control.
`CSc1ccccc1P(c1ccccc1)c1ccccc1SC` was tested, and the T/C [7] was 90 % of control, the T/C [8] was 91 % of control and the T/C [9] was 91 % of control.
With `O=[N+]([O-])c1cc([N+](=O)[O-])c(Cl)s1` the T/C (dose: 6.25 mg/kg/injection, schedule: Q01DX009 (ip), vehicle: saline with Tween-80) was 104 % of control and the T/C (dose: 12.5 mg/kg/injection, schedule: Q01DX009 (ip), vehicle: saline with Tween-80) was 100 % of control.
`O=C(O)C1C2CC3CC2C(C3)C1C(=O)O` (stereo unspecified) was tested, and the T/C (dose: 60.0 mg/kg/injection, schedule: Q01DX005 (ip), vehicle: Klucel (hydroxypropylcellulose) (HPC)) was 100 % of control, the T/C (dose: 120.0 mg/kg/injection, schedule: Q01DX005 (ip), vehicle: Klucel (hydroxypropylcellulose) (HPC)) was 100 % of control and the T/C (dose: 240.0 mg/kg/injection, schedule: Q01DX005 (ip), vehicle: Klucel (hydroxypropylcellulose) (HPC)) was 99 % of control.
For `O=C(NCc1ccncc1)c1ccccc1`, the T/C (dose: 100.0 mg/kg/injection, schedule: Q04DX003 (ip), vehicle: saline) was 104 % of control, the T/C (dose: 200.0 mg/kg/injection, schedule: Q04DX003 (ip), vehicle: saline) was 100 % of control and the T/C (dose: 400.0 mg/kg/injection, schedule: Q04DX003 (ip), vehicle: saline) was 106 % of control.
For `CCCCCCCCCC(=O)Nc1ncc([N+](=O)[O-])s1`, the T/C [7] was 94 % of control, the T/C [8] was 91 % of control and the T/C [9] was 94 % of control.
`CC(C)=CCC1(O)C(=O)c2ccccc2C1(O)C(=O)O` (stereo unspecified) was tested, and the T/C (dose: 25.0 mg/kg/injection, schedule: Q01DX009 (ip), vehicle: Klucel (hydroxypropylcellulose) (HPC)) was 101 % of control, the T/C [7] was 100 % of control and the T/C [8] was 107 % of control. For the same compound, the T/C [9] was 99 % of control.
